Values quoted from earlier work as cited in patent US7786168B2, “Phenolic acid salts of gabapentin in solid dosage forms and methods of use” (Kiel Laboratories, Inc., priority 2003, dated 2010).

Legend:
[1] = molecular target: gb1a-gb^2 heterodimer and post-synaptic GABAB receptor (Homo sapiens, UniProt Q9UBS5)
[2] = in water and across a wide range of pH

Sequence of gb1a-gb^2 heterodimer and post-synaptic GABAB receptor (Q9UBS5 15-961 limits assumed): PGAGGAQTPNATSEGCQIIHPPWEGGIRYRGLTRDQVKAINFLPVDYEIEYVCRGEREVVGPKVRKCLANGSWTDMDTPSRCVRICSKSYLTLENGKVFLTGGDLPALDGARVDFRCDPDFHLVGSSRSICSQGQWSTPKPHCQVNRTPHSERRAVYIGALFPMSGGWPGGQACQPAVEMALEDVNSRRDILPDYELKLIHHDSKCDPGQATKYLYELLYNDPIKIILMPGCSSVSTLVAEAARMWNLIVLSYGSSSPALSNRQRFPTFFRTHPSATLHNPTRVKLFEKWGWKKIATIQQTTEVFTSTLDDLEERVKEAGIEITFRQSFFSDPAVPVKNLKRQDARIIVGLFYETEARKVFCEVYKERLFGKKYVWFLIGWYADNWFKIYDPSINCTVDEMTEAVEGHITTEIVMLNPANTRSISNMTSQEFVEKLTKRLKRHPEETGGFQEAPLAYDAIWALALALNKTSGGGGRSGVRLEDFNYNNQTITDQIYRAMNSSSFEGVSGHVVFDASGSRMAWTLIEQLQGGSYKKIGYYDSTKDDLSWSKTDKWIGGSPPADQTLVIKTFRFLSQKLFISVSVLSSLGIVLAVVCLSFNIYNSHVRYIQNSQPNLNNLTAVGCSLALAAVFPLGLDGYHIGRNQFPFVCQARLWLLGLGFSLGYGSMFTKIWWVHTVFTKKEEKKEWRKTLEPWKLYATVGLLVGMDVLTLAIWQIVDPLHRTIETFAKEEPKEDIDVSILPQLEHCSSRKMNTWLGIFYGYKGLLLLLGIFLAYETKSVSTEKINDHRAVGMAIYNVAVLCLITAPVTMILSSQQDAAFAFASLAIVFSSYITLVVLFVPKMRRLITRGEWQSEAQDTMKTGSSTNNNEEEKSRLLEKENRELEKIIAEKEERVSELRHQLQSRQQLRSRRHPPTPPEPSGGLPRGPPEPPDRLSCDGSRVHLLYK
Sequence of gb1a-gb^2 heterodimer and post-synaptic GABAB receptor (O75899 42-941 partner): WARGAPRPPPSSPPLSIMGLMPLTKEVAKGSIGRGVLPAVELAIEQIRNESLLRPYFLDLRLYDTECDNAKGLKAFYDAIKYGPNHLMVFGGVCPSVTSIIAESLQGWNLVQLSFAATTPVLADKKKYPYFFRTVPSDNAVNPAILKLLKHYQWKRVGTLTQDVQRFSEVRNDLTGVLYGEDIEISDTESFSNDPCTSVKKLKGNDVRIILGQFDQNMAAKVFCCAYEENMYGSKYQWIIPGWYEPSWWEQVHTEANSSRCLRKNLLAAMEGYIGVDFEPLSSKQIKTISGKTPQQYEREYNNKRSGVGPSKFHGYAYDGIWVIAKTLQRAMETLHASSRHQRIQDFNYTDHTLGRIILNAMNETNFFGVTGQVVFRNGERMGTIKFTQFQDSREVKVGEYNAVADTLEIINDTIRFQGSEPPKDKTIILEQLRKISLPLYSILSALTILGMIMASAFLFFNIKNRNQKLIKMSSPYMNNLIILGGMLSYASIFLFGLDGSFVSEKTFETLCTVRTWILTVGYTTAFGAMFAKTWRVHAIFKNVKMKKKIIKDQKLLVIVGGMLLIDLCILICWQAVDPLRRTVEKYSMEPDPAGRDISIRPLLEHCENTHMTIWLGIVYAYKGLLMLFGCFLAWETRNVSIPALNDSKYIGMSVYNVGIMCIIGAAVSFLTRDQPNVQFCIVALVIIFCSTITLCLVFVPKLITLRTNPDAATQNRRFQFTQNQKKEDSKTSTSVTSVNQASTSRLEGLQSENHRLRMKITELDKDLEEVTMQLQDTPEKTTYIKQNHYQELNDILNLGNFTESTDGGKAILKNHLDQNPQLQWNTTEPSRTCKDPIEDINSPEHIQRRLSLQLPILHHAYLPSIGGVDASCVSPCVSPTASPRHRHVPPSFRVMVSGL

NCC1(CC(=O)O)CCCCC1 [gabapentin, 1-(aminomethyl) cyclohexaneacetic acid]
agonist activity [1]: selective agonist | time of peak plasma gabapentin concentrations (adults, post-dose): 2 to 3 h | absolute bioavailability (after administration of 300 mg, dose-dependent): approximately 60% | metabolism (in vivo): not metabolized | route of elimination (in vivo): eliminated via glomerular filtration | crossing of the blood-brain barrier (unlike GABA): able to cross the blood-brain barrier | plasma protein binding (plasma proteins): does not bind to plasma proteins | solubility [2]: freely soluble
